Source: PubChem BioAssay (NCI)
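Exposure lasted 48 hours, with cells grown in 96-well plates and compounds tested at five concentrations. GI50 is the concentration that inhibits growth by half. TGI: concentration producing complete growth inhibition.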

Assays:
Assay in all cases: NCI anticancer screen, dose series, 48 h
OVCAR-8 ovarian = test system: OVCAR-8 ovarian
OVCAR-4 ovarian = test system: OVCAR-4 ovarian
DU-145 prostate = test system: DU-145 prostate
NCI/ADR-RES ovarian = test system: NCI/ADR-RES ovarian
OVCAR-3 ovarian = test system: OVCAR-3 ovarian
SK-MEL-28 melanoma = test system: SK-MEL-28 melanoma
SK-OV-3 ovarian = test system: SK-OV-3 ovarian
UACC-62 melanoma = test system: UACC-62 melanoma
NCI-H23 lung = test system: NCI-H23 lung
786-0 renal = test system: 786-0 renal

SMILES	GI50 (OVCAR-8 ovarian) [µM]	TGI (OVCAR-8 ovarian) [µM]	GI50 (OVCAR-4 ovarian) [µM]	TGI (OVCAR-4 ovarian) [µM]	GI50 (DU-145 prostate) [µM]	TGI (DU-145 prostate) [µM]	GI50 (NCI/ADR-RES ovarian) [µM]	TGI (NCI/ADR-RES ovarian) [µM]	GI50 (OVCAR-3 ovarian) [µM]	TGI (OVCAR-3 ovarian) [µM]	GI50 (SK-MEL-28 melanoma) [µM]	TGI (SK-MEL-28 melanoma) [µM]	GI50 (SK-OV-3 ovarian) [µM]	TGI (SK-OV-3 ovarian) [µM]	GI50 (UACC-62 melanoma) [µM]	TGI (UACC-62 melanoma) [µM]	GI50 (NCI-H23 lung) [µM]	TGI (NCI-H23 lung) [µM]	GI50 (786-0 renal) [µM]	TGI (786-0 renal) [µM]
CN1CCN(c2ccc3nc4c(nc3c2C(F)(F)F)C(=O)c2ncccc2C4=O)CC1	1.97	8.96	1.07	2.26	1.23	2.6	2.33	6.94	0.379	1.41	1.99	4.18	1.98	4.98	1.05	2.31	0.365	1.91	2.02	4.9
O=C(NO)c1cnc(N2CCN(S(=O)(=O)c3ccc4ccccc4c3)CC2)nc1	0.0276	1.92	0.081	23.6	0.0445	2.23	0.0324		0.0955	0.386	0.062	1.15	0.147	2.33	0.0374	0.22	0.103	0.897	0.193	2.83
O=[N+]([O-])c1ccc(-c2ccccc2)c([As](=O)(O)O)c1	22.6	> 100	14.6	52	11.3	29	22.6	> 100	10.4	29.3	18	50.3	24.2	91.5	22.5	> 100	18.9	88.2	17.7	36.4
N#CC(C#N)=Cc1ccc(-c2ccc(-c3nc4ccccc4o3)cc2)o1	29.9	> 100	> 100	> 100	36.5	> 100	20.8	50.1	66.7	> 100	> 100	> 100	38.3	> 100	42.4	> 100	27.2	93.8	15.8	34
CCN(CC)c1ccc2nc3c4ccccc4c(=NC(=O)c4ccccc4-c4c5ccc(N(CC)CC)cc5[o+]c5cc(N(CC)CC)ccc45)cc-3oc2c1	2.23	12.2	1.25	2.67	1.75	3.46	2.19	10.6	0.85	6.26	5.06	12.4	12.3	26.6	5.73	17.9	1.88	6.13	2.41	6.68
O=C1c2cccc3cc([N+](=O)[O-])cc(c23)C(=O)N1O		> 100		> 100		> 100		> 100		> 100		> 100		> 100		81.4		> 100		> 100
CC1(C)CC2CC(C)(CN2c2ncnc3ccc(Br)cc23)C1 (centres undefined)	12.3	25	14.1	27.1	12.4	24.9	12.8	25.4	2.72	13.1	13.9	28	16.8	31.2	5.76	19.5	8.74	20.8	12.8	25.4
NC(=O)NC(=O)C1CCCCC1C(=O)O (centres undefined)		> 100		> 100		> 100		> 100		> 100		> 100		> 100		> 100		> 100		> 100
c1cnc2c(c1)Nc1cnncc1S2		> 100		> 100		> 100		> 100		> 100		> 100		> 100		> 100		> 100		> 100
Nc1cccc2nsnc12		> 100		> 100		> 100		> 100		> 100		> 100		> 100		> 100		> 100		> 100
COC(=O)Nc1nc2ccc(Sc3ccccc3)cc2[nH]1	0.298	3.99	0.856	6.34	0.336	10.8	0.0674	0.461	0.123	0.421	0.387	15.5	0.179	0.684	0.405	23.9	0.29	31	0.323	14.6
C=C1CO[C@@H]2C[C@@H]1CC/C(C)=C/CC/C(C)=C/CC[C@@]2(C)O	20.9	44.8	21.7	43.4	18.5	38.3	18.5	36	24.1	51.6	16.8	38.3	24	56.6	18.4	35.1	21.8	44.6	17.5	32.9
O=C(/C=C/c1cccc(B(O)O)c1)c1cccc(B(O)O)c1	2.19	7.23	3.27	22.2	1.83	3.79	1.99	5.47	0.828	2.38	1.72	3.46	3.16	11.6	1.66	4.31	1.81	4.44	1.75	3.71
Cc1cc2nc3c4ccccc4n(CCN(C)C)c3nc2cc1C	1.16	12.4	2.55	8.94	2.07	11.8	1.39	12.7	1.91	7.28	2.09	4.73	3.1	20.2	1.43	2.82	1.87	5.7	1.97	12.2
